Laboratory results as given in the supplement of paper PMC10307832.

What was measured:
Assay in all cases: relative viability (nuclei count vs DMSO), 5 days (fraction); higher = more cells survive
ABC-1 = system: ABC-1
Procedure, shortened: (§1)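 For relative viability, nuclei counts in treated wells were divided by those in vehicle wells. Lung cancer cell lines had been pin-tool dosed in 1536-well plates the day after seeding and cultured for 5 days, then fixed and stained in one step (final 0.05% Triton X-100, 1% formaldehyde, 1 ug/ml Hoechst) and imaged at 4×. Doses were one drug alone or a fixed anchor-drug dose plus five library-drug doses (not always all listed) in √10 steps, and values are duplicate-plate medians.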

CAL-12T = system: CAL-12T
Procedure, shortened: as §1

COR-L23 = system: COR-L23
Procedure, shortened: as §1

EKVX = system: EKVX
Procedure, shortened: as §1

H3255 = system: H3255
Procedure, shortened: as §1

HCC-15 = system: HCC-15
Procedure, shortened: as §1

HCC-827 = system: HCC-827
Procedure, shortened: as §1

LK-2 = system: LK-2
Procedure, shortened: as §1

NCI-H1355 = system: NCI-H1355
Procedure, shortened: as §1

NCI-H1437 = system: NCI-H1437
Procedure, shortened: as §1

NCI-H1650 = system: NCI-H1650
Procedure, shortened: as §1

NCI-H1651 = system: NCI-H1651
Procedure, shortened: as §1

NCI-H1734 = system: NCI-H1734
Procedure, shortened: as §1

NCI-H2228 = system: NCI-H2228
Procedure, shortened: as §1

NCI-H2405 = system: NCI-H2405
Procedure, shortened: as §1

NCI-H322M = system: NCI-H322M
Procedure, shortened: as §1

NCI-H520 = system: NCI-H520
Procedure, shortened: as §1

NCI-H661 = system: NCI-H661
Procedure, shortened: as §1

PC-14 = system: PC-14
Procedure, shortened: as §1

PC-3 [JPC-3] = system: PC-3 [JPC-3]
Procedure, shortened: as §1

RERF-LC-KJ = system: RERF-LC-KJ
Procedure, shortened: as §1

SK-MES-1 = system: SK-MES-1
Procedure, shortened: as §1

SW 1573 = system: SW 1573
Procedure, shortened: as §1

`C[C@@H]1CN(CC(=O)Nc2ccc3c(c2)Cc2cccc(-c4cc(=O)cc(N5CCOCC5)o4)c2S3)C[C@H](C)O1` + O=C(CCCCCCC(=O)Nc1ccccc1)NO [Vorinostat] (partner 1 µM) was tested, and the relative viability (ABC-1; first compound 0.04 µM) was 0.917, the relative viability (ABC-1; first compound 0.1265 µM) was 1.14 and the relative viability (ABC-1; first compound 0.4 µM) was 1.23. The relative viability (ABC-1; first compound 4 µM) was 1.27, the relative viability (CAL-12T; first compound 0.04 µM) was 0.719 and the relative viability (CAL-12T; first compound 0.1265 µM) was 0.623. It also gave a relative viability (CAL-12T; first compound 0.4 µM) of 0.739, a relative viability (CAL-12T; first compound 4 µM) of 0.377 and a relative viability (COR-L23; first compound 0.04 µM) of 0.433. It also gave a relative viability (COR-L23; first compound 0.1265 µM) of 0.451, a relative viability (COR-L23; first compound 0.4 µM) of 0.473 and a relative viability (COR-L23; first compound 4 µM) of 0.333. For the same compound, the relative viability (EKVX; first compound 0.04 µM) was 0.753, the relative viability (EKVX; first compound 0.1265 µM) was 0.666 and the relative viability (EKVX; first compound 0.4 µM) was 0.696. For the same compound, the relative viability (EKVX; first compound 4 µM) was 0.661, the relative viability (H3255; first compound 0.04 µM) was 0.634 and the relative viability (H3255; first compound 0.1265 µM) was 0.757. It also gave a relative viability (H3255; first compound 0.4 µM) of 0.985, a relative viability (H3255; first compound 4 µM) of 0.67 and a relative viability (HCC-15; first compound 0.04 µM) of 0.825. The relative viability (HCC-15; first compound 0.1265 µM) was 0.769, the relative viability (HCC-15; first compound 0.4 µM) was 0.729 and the relative viability (HCC-15; first compound 4 µM) was 0.663. For the same compound, the relative viability (HCC-827; first compound 0.04 µM) was 0.801, the relative viability (HCC-827; first compound 0.1265 µM) was 0.862 and the relative viability (HCC-827; first compound 0.4 µM) was 0.727. The relative viability (HCC-827; first compound 4 µM) was 0.757, the relative viability (LK-2; first compound 0.04 µM) was 0.314 and the relative viability (LK-2; first compound 0.1265 µM) was 0.309. The relative viability (LK-2; first compound 0.4 µM) was 0.254, the relative viability (LK-2; first compound 4 µM) was 0.298 and the relative viability (NCI-H1355; first compound 0.04 µM) was 0.552. It also gave a relative viability (NCI-H1355; first compound 0.1265 µM) of 0.713, a relative viability (NCI-H1355; first compound 0.4 µM) of 0.566 and a relative viability (NCI-H1355; first compound 4 µM) of 0.621. It also gave a relative viability (NCI-H1437; first compound 0.04 µM) of 0.837, a relative viability (NCI-H1437; first compound 0.1265 µM) of 0.768 and a relative viability (NCI-H1437; first compound 0.4 µM) of 0.819. The relative viability (NCI-H1437; first compound 4 µM) was 0.609, the relative viability (NCI-H1650; first compound 0.04 µM) was 0.604 and the relative viability (NCI-H1650; first compound 0.1265 µM) was 0.488. The relative viability (NCI-H1650; first compound 0.4 µM) was 0.588, the relative viability (NCI-H1650; first compound 4 µM) was 0.517 and the relative viability (NCI-H1651; first compound 0.04 µM) was 0.541. The relative viability (NCI-H1651; first compound 0.1265 µM) was 0.535, the relative viability (NCI-H1651; first compound 0.4 µM) was 0.538 and the relative viability (NCI-H1651; first compound 4 µM) was 0.559. It also gave a relative viability (NCI-H1734; first compound 0.04 µM) of 0.602, a relative viability (NCI-H1734; first compound 0.1265 µM) of 0.768 and a relative viability (NCI-H1734; first compound 0.4 µM) of 0.812. It also gave a relative viability (NCI-H1734; first compound 4 µM) of 0.901, a relative viability (NCI-H2228; first compound 0.04 µM) of 0.667 and a relative viability (NCI-H2228; first compound 0.1265 µM) of 0.589. It also gave a relative viability (NCI-H2228; first compound 0.4 µM) of 0.852, a relative viability (NCI-H2228; first compound 4 µM) of 0.569 and a relative viability (NCI-H2405; first compound 0.04 µM) of 1.06. For the same compound, the relative viability (NCI-H2405; first compound 0.1265 µM) was 1.12, the relative viability (NCI-H2405; first compound 0.4 µM) was 0.94 and the relative viability (NCI-H2405; first compound 4 µM) was 1.01. It also gave a relative viability (NCI-H322M; first compound 0.04 µM) of 0.883, a relative viability (NCI-H322M; first compound 0.1265 µM) of 0.847 and a relative viability (NCI-H322M; first compound 0.4 µM) of 0.902. It also gave a relative viability (NCI-H322M; first compound 4 µM) of 0.776, a relative viability (NCI-H520; first compound 0.04 µM) of 0.776 and a relative viability (NCI-H520; first compound 0.1265 µM) of 0.677. The relative viability (NCI-H520; first compound 0.4 µM) was 0.656, the relative viability (NCI-H520; first compound 4 µM) was 0.562 and the relative viability (NCI-H661; first compound 0.04 µM) was 0.689. For the same compound, the relative viability (NCI-H661; first compound 0.1265 µM) was 0.805, the relative viability (NCI-H661; first compound 0.4 µM) was 0.756 and the relative viability (NCI-H661; first compound 4 µM) was 0.773. The relative viability (PC-14; first compound 0.04 µM) was 0.75, the relative viability (PC-14; first compound 0.1265 µM) was 0.689 and the relative viability (PC-14; first compound 0.4 µM) was 0.705. The relative viability (PC-14; first compound 4 µM) was 0.61, the relative viability (PC-3 [JPC-3]; first compound 0.04 µM) was 0.822 and the relative viability (PC-3 [JPC-3]; first compound 0.1265 µM) was 0.792. The relative viability (PC-3 [JPC-3]; first compound 0.4 µM) was 0.821, the relative viability (PC-3 [JPC-3]; first compound 4 µM) was 0.821 and the relative viability (RERF-LC-KJ; first compound 0.04 µM) was 0.648. The relative viability (RERF-LC-KJ; first compound 0.1265 µM) was 0.655, the relative viability (RERF-LC-KJ; first compound 0.4 µM) was 0.738 and the relative viability (RERF-LC-KJ; first compound 4 µM) was 0.543. For the same compound, the relative viability (SK-MES-1; first compound 0.04 µM) was 1.19, the relative viability (SK-MES-1; first compound 0.1265 µM) was 1.07 and the relative viability (SK-MES-1; first compound 0.4 µM) was 1.01. For the same compound, the relative viability (SK-MES-1; first compound 4 µM) was 0.855, the relative viability (SW 1573; first compound 0.04 µM) was 0.551 and the relative viability (SW 1573; first compound 0.1265 µM) was 0.989. The relative viability (SW 1573; first compound 0.4 µM) was 0.909 and the relative viability (SW 1573; first compound 4 µM) was 0.769.
